In US8889375B2, “Hypoglycemic effect enhancer” (Biofermin Pharmaceutical Co., Ltd., priority 2009, dated 2014):

Key:
KK-A^y mice [1] = experiment: Fasting blood glucose level after 2-week feeding of the test diet (Example 2); format: in vivo, mouse; conditions: 2-week feeding of test diet (10% BBG9-1 dried cells and/or 0.0003% voglibose in CE-2), fasted overnight, FIG. 1
Excerpt: (§1) As the voglibose, BASEN (registered trade name) tablets 0.2 (made by Takeda Pharmaceutical Company Ltd.) were crushed and used. Female KK-A^y mice (strain name KK-A^y/TaJcl) at 8 weeks old were purchased (from CLEA Japan, Inc.) and preliminarily reared in separate cages for 2 weeks. A KK-A^y mouse is a diabetic model mouse. In the preliminary rearing, free access to a commercial powder diet (trade name: CE-2, made by CLEA Japan, Inc.) and tap water was provided. On the first day of the experiment, the oral glucose tolerance test (OGTT) was conducted. That is, to the mice kept fasted from the previous day, a glucose solution ((2 g in 5 mL)/kg) was orally administered. […] Accu-Check Aviva, made by Roche Diagnostics). The area under the blood concentration-time curve (AUC) was calculated, and based on the AUC, the mice were divided into the following 4 groups […] mice/group). The grouped mice were given free access to the test diet. Group A: a group fed with CE-2 containing 10% dextrin. […] Group C: a group fed with CE-2 containing 10% dextrin and 0.0003% voglibose. […] Each group was fed with the test diet for 2 weeks as above, fasted overnight, and then measured for fasting glucose level with use of Accu-Check Aviva. […] The significant difference of each group from Group A was evaluated using Durmett's test, and the significant difference between 2 groups was evaluated using t-test.

KK-A^y mice [2] = experiment: Oral glucose tolerance test (OGTT) after 6-week feeding of the test diet (Example 2); format: in vivo, mouse
Excerpt: as §1

GK rats = conditions: 9-week dietary administration, 0.005%: 4.1 mg/kg·day; cited from earlier work

With `OCC(CO)N[C@H]1C[C@](O)(CO)[C@@H](O)[C@H](O)[C@H]1O` [voglibose, 1L(1S)-(1(OH),2,4,5/1,3)-5-[[2-hydroxy-1-(hydroxymethyl)-ethyl]amino]-1-C-(hydroxymethyl)-1,2,3,4-cyclohexane tetrol] as the molecule, how does the “fasting blood glucose level” value (KK-A^y mice [1]) read?
The value was “neither BBG9-1 alone nor voglibose alone decreased the fasting blood glucose level”.

What about the glucose tolerance (KK-A^y mice [2]; 6-week dietary administration, voglibose 0.0003%: 0.6 mg/kg·day) of the same molecule?
The glucose tolerance was “did not improve the glucose tolerance”.

And the “blood glucose level in the OGTT after glucose loading” value (KK-A^y mice [2]; 6-week feeding (10% BBG9-1 dried cells and/or 0.0003% voglibose in CE-2), glucose 2 g/kg oral, FIG. 2)?
Its value is “neither BBG9-1 alone nor voglibose alone inhibited the increase in the blood glucose level”.

What about the glucose tolerance (GK rats) of the same molecule?
The glucose tolerance was “improved the glucose tolerance”.
